Results from PubChem BioAssay AID1963982 (Molecular Pharmacology Branch, DTP, NCI, 2024).

Tested on: 313798-341-R-J2-PDC spheroids, viability
Test: Anticancer human tumor 313798-341-R-J2-PDC patient-derived cervical squamous cell carcinoma cell line growth inhibition [PI3K]
Conditions: spheroids with HUVEC and MSC; for viability, T/C: stronger effect = lower value; active means viability on the fitted dose curve at most 10% of control; inactive means the rest
Summary of the method: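 Viability of mixed-cell spheroids was determined after exposure to pairwise combinations, one partner being inavolisib, alpelisib, duvelisib or copanlisib. Highest tested concentration matched clinical Cmax where known and 10 microM where not, descending in half-log steps.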

[1] = curve of first compound, second compound 0.0316 µM
[2] = curve of first compound, second compound 0.1 µM
[3] = curve of first compound, second compound 0.316 µM
[4] = curve of first compound, second compound 1 µM
[5] = second compound 0.0316 µM, first compound 0.0316 µM
[6] = second compound 0.0316 µM, first compound 0.1 µM
[7] = second compound 0.1 µM, first compound 0.0316 µM
[8] = second compound 0.1 µM, first compound 0.1 µM
[9] = second compound 0.316 µM, first compound 0.0316 µM
[10] = second compound 0.316 µM, first compound 0.1 µM
[11] = second compound 1 µM, first compound 0.0316 µM
[12] = second compound 1 µM, first compound 0.1 µM
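Further: spheroids exposed to compounds for seven days.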
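Wherever viability, T/C is given: 100% = DMSO vehicle control viability.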

Cn1ncnc1[C@H]1c2n[nH]c(=O)c3cc(F)cc(c23)N[C@@H]1c1ccc(F)cc1 + CC(Nc1ncnc2nc[nH]c12)c1cc2cccc(Cl)c2c(=O)n1-c1ccccc1
inactive: viability, T/C (second compound 0.0316 µM, first compound 0.000316 µM) 110% | viability, T/C (second compound 0.0316 µM, first compound 0.001 µM) 94.2% | viability, T/C (second compound 0.0316 µM, first compound 0.00316 µM) 89.2% | viability, T/C (second compound 0.0316 µM, first compound 0.01 µM) 109% | viability, T/C [5] 89.5% | viability, T/C [6] 77.1% | viability, T/C (second compound 0.1 µM, first compound 0.000316 µM) 94.7% | viability, T/C (second compound 0.1 µM, first compound 0.001 µM) 101% | viability, T/C (second compound 0.1 µM, first compound 0.00316 µM) 91.8% | viability, T/C (second compound 0.1 µM, first compound 0.01 µM) 96.7% | viability, T/C [7] 97.4% | viability, T/C [8] 84% | viability, T/C (second compound 0.316 µM, first compound 0.000316 µM) 92.6% | viability, T/C (second compound 0.316 µM, first compound 0.001 µM) 103% | viability, T/C (second compound 0.316 µM, first compound 0.00316 µM) 102% | viability, T/C (second compound 0.316 µM, first compound 0.01 µM) 105% | viability, T/C [9] 85.8% | viability, T/C [10] 85.2% | viability, T/C (second compound 1 µM, first compound 0.000316 µM) 102% | viability, T/C (second compound 1 µM, first compound 0.001 µM) 102% | viability, T/C (second compound 1 µM, first compound 0.00316 µM) 103% | viability, T/C (second compound 1 µM, first compound 0.01 µM) 95.5% | viability, T/C [11] 90.9% | viability, T/C [12] 86.2% | viability, T/C (second compound 3.16 µM, first compound 0.000316 µM) 92.9% | viability, T/C (second compound 3.16 µM, first compound 0.001 µM) 91.1% | viability, T/C (second compound 3.16 µM, first compound 0.00316 µM) 87.7% | viability, T/C (second compound 3.16 µM, first compound 0.01 µM) 95.5% | viability, T/C (second compound 3.16 µM, first compound 0.0316 µM) 84.1% | viability, T/C (second compound 3.16 µM, first compound 0.1 µM) 79.9% | viability, T/C (second compound 10 µM, first compound 0.000316 µM) 88.1% | viability, T/C (second compound 10 µM, first compound 0.001 µM) 80.8% | viability, T/C (second compound 10 µM, first compound 0.00316 µM) 73.8% | viability, T/C (second compound 10 µM, first compound 0.01 µM) 78.6% | viability, T/C (second compound 10 µM, first compound 0.0316 µM) 74.3% | viability, T/C (second compound 10 µM, first compound 0.1 µM) 61.5%
> 0.1 µM: IC50 [1] | IC50 [2] | IC50 [3] | IC50 [4] | IC50 (curve of first compound, second compound 3.16 µM) | IC50 (curve of first compound, second compound 10 µM)

C#Cc1c(F)ccc2cc(O)cc(-c3ncc4c(N5CC6CCC(C5)N6)nc(OCC56CCCN5CC(F)C6)nc4c3F)c12 (stereo unspecified) + CC(Nc1ccc2c(c1)OCCn1cc(N3C(=O)OCC3C(F)F)nc1-2)C(N)=O
inactive: viability, T/C (second compound 0.00316 µM, first compound 0.0316 µM) 91.8% | viability, T/C (second compound 0.00316 µM, first compound 0.1 µM) 96.8% | viability, T/C (second compound 0.00316 µM, first compound 0.316 µM) 97.4% | viability, T/C (second compound 0.00316 µM, first compound 1 µM) 95.5% | viability, T/C (second compound 0.00316 µM, first compound 3.16 µM) 99.3% | viability, T/C (second compound 0.00316 µM, first compound 10 µM) 99.3% | viability, T/C (second compound 0.01 µM, first compound 0.0316 µM) 97.7% | viability, T/C (second compound 0.01 µM, first compound 0.1 µM) 99.9% | viability, T/C (second compound 0.01 µM, first compound 0.316 µM) 102% | viability, T/C (second compound 0.01 µM, first compound 1 µM) 110% | viability, T/C (second compound 0.01 µM, first compound 3.16 µM) 116% | viability, T/C (second compound 0.01 µM, first compound 10 µM) 98.9% | viability, T/C [5] 100% | viability, T/C [6] 113% | viability, T/C (second compound 0.0316 µM, first compound 0.316 µM) 109% | viability, T/C (second compound 0.0316 µM, first compound 1 µM) 99.1% | viability, T/C (second compound 0.0316 µM, first compound 3.16 µM) 109% | viability, T/C (second compound 0.0316 µM, first compound 10 µM) 104% | viability, T/C [7] 118% | viability, T/C [8] 94.5% | viability, T/C (second compound 0.1 µM, first compound 0.316 µM) 108% | viability, T/C (second compound 0.1 µM, first compound 1 µM) 104% | viability, T/C (second compound 0.1 µM, first compound 3.16 µM) 102% | viability, T/C (second compound 0.1 µM, first compound 10 µM) 97% | viability, T/C [9] 91% | viability, T/C [10] 81.6% | viability, T/C (second compound 0.316 µM, first compound 0.316 µM) 74.2% | viability, T/C (second compound 0.316 µM, first compound 1 µM) 78.8% | viability, T/C (second compound 0.316 µM, first compound 3.16 µM) 83% | viability, T/C (second compound 0.316 µM, first compound 10 µM) 76.9% | viability, T/C [11] 60.6% | viability, T/C [12] 62.2% | viability, T/C (second compound 1 µM, first compound 0.316 µM) 61.2% | viability, T/C (second compound 1 µM, first compound 1 µM) 58.9% | viability, T/C (second compound 1 µM, first compound 3.16 µM) 58.6% | viability, T/C (second compound 1 µM, first compound 10 µM) 45.6%
> 10 µM: IC50 (curve of first compound, second compound 0.00316 µM) | IC50 (curve of first compound, second compound 0.01 µM) | IC50 [1] | IC50 [2] | IC50 [3] | IC50 [4]

Cn1ncc(Cl)c1-c1cc(C(=O)NC(CN)Cc2cccc(F)c2)sc1Cl (stereo unspecified)
inactive: viability, T/C (compound 0.0316 µM) 105% [middle of 4 runs] | viability, T/C (compound 0.1 µM) 97.5% [middle of 4 runs] | viability, T/C (compound 0.316 µM) 79.1% [middle of 4 runs] | viability, T/C (compound 1 µM) 49.9% [middle of 4 runs] | viability, T/C (compound 3.16 µM) 34.7% [middle of 4 runs] | viability, T/C (compound 10 µM) 34.5% [middle of 4 runs]
996 nM [middle of 4 runs]: IC50 (curve of compound)
